In patent US20230050965A1, “SSTR5 ANTAGONISTS” (Kallyope, Inc., priority 2019, published 2023):
pIC50: −log10 of the molar value.

Target: T1, human SSTR5 (Homo sapiens, UniProt P35346)
T1 construct: expressed in transfected cells
Assay: Inositol phosphate (IP1) accumulation assay, antagonist mode
Assay type: cell-based
Details: CHO-K1 cells stably co-expressing human SSTR5 with Gqi5; pre-incubation with antagonist, then SST28 agonist; IP1 HTRF readout
Excerpt: Inositol Phosphate Accumulation Assay
CHO-K1 cells stably co-expressing human SSTR5 with Gqi5 were developed using Jump-In technology from Thermo-Fisher. Gqi5 is the mouse G alpha q protein, that was modified to interact with Gi-coupled GPCRs as described previously (Coward, P.; Chan, S. D.; Wada, H. G.; Humphries, G. M.; Conklin, B. R. Chimeric G proteins Allow a High-Throughput Signaling Assay of Gi-Coupled Receptors. Anal Biochem. 1999, 270(2), 242-248).
Co-expression of Gqi5 with SSTR5 allowed monitoring of SSTR5 activity by following IP1 accumulation. The assay was performed in a 384-well plate format using the IP1 assay kit from Cis-Bio in an antagonist mode, i.e., pre-incubation with antagonist following by receptor activation by agonist at a concentration generating 90% of full activation. Frozen cells expressing human SSTR5 were thawed, washed, and then plated in DMEM supplemented with 10% FBS and non-essential amino acids. 40 μL of 2.5×10^5 cells/mL were plated on a Poly D-Lysine coated 384-well white plate. The cells were then incubated for 16 hr. at 37° C./5% CO2. After 16 hour the medium was removed, and 10 μL of stimulation buffer was added to the cells. Test compounds were dissolved in DMSO at concentrations 2000-fold that of the final assay concentrations. 7.5 nL compound solutions were transferred to the cell plates using a Labcyte Echo® acoustic liquid handler. The plates were then incubated for 15 minutes at 37° C./5% CO2. After the first incubation, 5 μL of 30 nM SST28 were added to the cells, and the cells were incubated for 90 minutes at 37° C./5% CO2. 5 μL of detection buffer (prepared as described in the IP-1 kit) was added to each well, and the plates were incubated at RT for 1 hour.
TR-FRET was measured using a ClarioSTAR plate reader, calculating the ratio between emissions at 665 nm and 620 nm (HTRF ratio). The HTRF ratio for positive (Max) and negative (Min) controls were used to normalize HTRF data and generate values for % inhibition. IC50 and maximal inhibition values were determined using a standard 4-parameter fit.

T1 sequence (P35346 whole entry): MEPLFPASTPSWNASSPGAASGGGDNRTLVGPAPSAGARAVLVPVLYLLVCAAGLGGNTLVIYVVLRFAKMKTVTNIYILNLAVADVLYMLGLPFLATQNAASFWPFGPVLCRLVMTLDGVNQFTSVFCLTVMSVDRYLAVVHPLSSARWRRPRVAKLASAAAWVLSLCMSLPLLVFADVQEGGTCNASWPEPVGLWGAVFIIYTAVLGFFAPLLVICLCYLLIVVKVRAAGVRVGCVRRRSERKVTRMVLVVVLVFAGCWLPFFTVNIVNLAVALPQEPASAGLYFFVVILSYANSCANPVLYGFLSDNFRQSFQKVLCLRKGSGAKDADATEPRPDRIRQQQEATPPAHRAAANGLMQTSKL

| SMILES | pIC50 |
| --- | --- |
| CCOc1cc(-c2ccc(F)cc2)c(C2CC2)cc1CN1CCC2(CC1)CN([C@H]1CC[C@@H](P(=O)(O)O)CC1)C(=O)O2 (single isomer, unassigned) [Compound 33, ((cis)-4-(8-((2-cyclopropyl-5-ethoxy-4'-fluoro-[1,1'-biphenyl]-4-yl)methyl)-2-oxo-1-oxa-3,8-diazaspiro[4.5]decan-3-yl)cyclohexyl)phosphonic acid] | ≥ 7.00 |
| CCOc1cc(-c2ccc(F)cc2)c(C2CC2)cc1CN1CCC2(CC1)CN([C@H]1CC[C@H](P(=O)(O)O)CC1)C(=O)O2 (single isomer, unassigned) [Compound 34, ((trans)-4-(8-((2-cyclopropyl-5-ethoxy-4'-fluoro-[1,1'-biphenyl]-4-yl)methyl)-2-oxo-1-oxa-3,8-diazaspiro[4.5]decan-3-yl)cyclohexyl)phosphonic acid] | ≥ 7.00 |
| CCOc1cc(-c2ccc(F)cc2)c(C2CC2)cc1CN1CCC2(CC1)CC(=O)N(c1ccc(P(C)(=O)O)cc1)C2 [Compound 7, (4-(8-((2-cyclopropyl-5-ethoxy-4′-fluoro-[1,1′-biphenyl]-4-yl)methyl)-3-oxo-2,8-diazaspiro[4.5]decan-2-yl)phenyl)(methyl)phosphinic acid] | ≥ 7.00 |
| CCOc1cc(C#N)c(C2CC2)cc1CN1CCC2(CC1)CN(c1ccc(P(C)(=O)O)cc1)C(=O)O2 [Compound 8, (4-(8-(4-cyano-5-cyclopropyl-2-ethoxybenzyl)-2-oxo-1-oxa-3,8-diazaspiro[4.5]decan-3-yl)phenyl)(methyl)phosphinic acid] | ≥ 7.00 |
| CCOc1cc(-c2ccc(F)cc2)c(C2CC2)cc1CN1CCC2(CC1)CN(C13CC(CP(=O)(O)O)(C1)C3)C(=O)O2 [Compound 12, ((3-(8-((2-cyclopropyl-5-ethoxy-4′-fluoro-[1,1′-biphenyl]-4-yl)methyl)-2-oxo-1-oxa-3,8-diazaspiro[4.5]decan-3-yl)bicyclo[1.1.1]pentan-1-yl)methyl)phosphonic acid] | ≥ 7.00 |

The remaining lines, values ahead:

| pIC50 | SMILES |
| --- | --- |
| ≥ 7.00 | CCOc1nc(-c2ccc(F)cc2)c(C2CC2)cc1CN1CCC2(CC1)CN(c1ccc(P(C)(=O)O)cc1)C(=O)O2 [Compound 4, (4-(8-((5-cyclopropyl-2-ethoxy-6-(4-fluorophenyl)pyridin-3-yl)methyl)-2-oxo-1-oxa-3,8-diazaspiro[4.5]decan-3-yl)phenyl)(methyl)phosphinic acid] |
| ≥ 7.00 | CCOc1cc(-c2ccc(F)cc2)c(C2CC2)cc1CN1CCC2(CC1)CN(c1ccc(P(=O)(O)O)cn1)C(=O)O2 [Compound 5, (6-(8-((2-cyclopropyl-5-ethoxy-4′-fluoro-[1,1′-biphenyl]-4-yl)methyl)-2-oxo-1-oxa-3,8-diazaspiro[4.5]decan-3-yl)pyridin-3-yl)phosphonic acid] |
| ≥ 7.00 | CCOc1cc(-c2ccc(F)cc2)c(C2CC2)cc1CN1CCC2(CC1)CN(c1ccc(P(=O)(O)O)nc1)C(=O)O2 [Compound 6, (5-(8-((2-cyclopropyl-5-ethoxy-4′-fluoro-[1,1′-biphenyl]-4-yl)methyl)-2-oxo-1-oxa-3,8-diazaspiro[4.5]decan-3-yl)pyridin-2-yl)phosphonic acid] |
| ≥ 7.00 | CCOc1nc(-c2ccc(F)cc2)c(C2CC2)cc1CN1CCC2(CC1)CN(c1ccc(P(=O)(O)O)cc1)C(=O)O2 [Compound 10, (4-(8-((5-cyclopropyl-2-ethoxy-6-(4-fluorophenyl)pyridin-3-yl)methyl)-2-oxo-1-oxa-3,8-diazaspiro[4.5]decan-3-yl)phenyl)phosphonic acid] |
| ≥ 7.00 | CCOc1nc(-c2ccc(F)cc2)c(C2CC2)cc1CN1CCC2(CC1)CN(C13CC(CP(=O)(O)O)(C1)C3)C(=O)O2 [Compound 11, ((3-(8-((5-cyclopropyl-2-ethoxy-6-(4-fluorophenyl)pyridin-3-yl)methyl)-2-oxo-1-oxa-3,8-diazaspiro[4.5]decan-3-yl)bicyclo[1.1.1]pentan-1-yl)methyl)phosphonic acid] |
